Test results: ChEMBL document CHEMBL1201862, “PubChem BioAssay data set” (2004)
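Step 1: Grow cells in 96-well plates. Step 2: Expose to compound for 48 hours at 5 concentrations. Step 3: Interpolate endpoints linearly; if unreached, use highest concentration. The concentration for 50% growth inhibition is given as GI50.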 The source made the active and inactive calls. Rule as the data show it: active = GI50 up to about 1.1 µM and inactive = higher.

Columns and labels:
Test in all cases: NCI anticancer screen, dose series, 48 h
[1] = test system: COLO 205
[2] = test system: SK-OV-3
[3] = test system: K562
[4] = test system: NCI-H460
[5] = test system: CAKI-1
[6] = test system: CCRF-CEM
[7] = test system: 786-0
[8] = test system: SF-539
[9] = test system: EKVX
[10] = test system: RXF 393
[11] = test system: HOP-62
[12] = test system: UO-31
[13] = test system: U-251
[14] = test system: OVCAR-5
[15] = test system: SF-268
[16] = test system: Malme-3M
[17] = test system: M14
[18] = test system: SK-MEL-5
[19] = test system: NCI-H226

SMILES	GI50 [1]	GI50 [2]	GI50 [3]	GI50 [4]	GI50 [5]	GI50 [6]	GI50 [7]	GI50 [8]	GI50 [9]	GI50 [10]	GI50 [11]	GI50 [12]	GI50 [13]	GI50 [14]	GI50 [15]	GI50 [16]	GI50 [17]	GI50 [18]	GI50 [19]
CC(C)CC(CNC(Cc1ccc(Cl)cc1)C(N)=O)NC(=O)C(Cc1c[nH]cn1)NC(=O)CNC(=O)C(NC(=O)C(C)NC(=O)C(Cc1c[nH]c2ccccc12)NC(=O)C(CCC(=O)O)NC(=O)C(N)Cc1ccccc1)C(C)C (stereo not drawn)	> 133 µM (inactive)	> 133 µM (inactive)	> 133 µM (inactive)	> 133 µM (inactive)	> 133 µM (inactive)	> 133 µM (inactive)	> 133 µM (inactive)	> 133 µM (inactive)	> 133 µM (inactive)	> 133 µM (inactive)	> 133 µM (inactive)	8.17 µM (inactive)	> 133 µM (inactive)						
CN(C)CCn1c2c3ccccc3ccc2c2oc(=O)c3ccccc3c21	4.17 µM (inactive)	0.895 µM (active)	4.48 µM (inactive)	2.79 µM (inactive)	6.37 µM (inactive)	4.26 µM (inactive)	2.36 µM (inactive)	2.5 µM (inactive)	12.6 µM (inactive)		13.2 µM (inactive)	1.61 µM (inactive)	7.46 µM (inactive)	19.5 µM (inactive)	2.71 µM (inactive)	9.86 µM (inactive)	6.12 µM (inactive)		
Cc1cccc(C(C)(C)C)c1NC(=O)CCc1n[nH]c(=S)o1	16.6 µM (inactive)	> 100 µM (inactive)	43.2 µM (inactive)	> 100 µM (inactive)	> 100 µM (inactive)	> 100 µM (inactive)	> 100 µM (inactive)	> 100 µM (inactive)	> 100 µM (inactive)		> 100 µM (inactive)	> 100 µM (inactive)	> 100 µM (inactive)	> 100 µM (inactive)	> 100 µM (inactive)	> 100 µM (inactive)	> 100 µM (inactive)	> 100 µM (inactive)	0.3 µM (active)
CCCc1n[nH]c(CCC(=O)N(Cc2ccccc2)Cc2ccccc2)c1CC	> 100 µM (inactive)	> 100 µM (inactive)	> 100 µM (inactive)	> 100 µM (inactive)	> 100 µM (inactive)	> 100 µM (inactive)	> 100 µM (inactive)	> 100 µM (inactive)	> 100 µM (inactive)	> 100 µM (inactive)	> 100 µM (inactive)	> 100 µM (inactive)		> 100 µM (inactive)	> 100 µM (inactive)	> 100 µM (inactive)	> 100 µM (inactive)	> 100 µM (inactive)	> 100 µM (inactive)
O=c1c2ccccc2[nH]c(=S)n1-c1ccc(Br)cc1	> 100 µM (inactive)		43 µM (inactive)	42.9 µM (inactive)			80.7 µM (inactive)	> 100 µM (inactive)	> 100 µM (inactive)	> 100 µM (inactive)	> 100 µM (inactive)	92.5 µM (inactive)	> 100 µM (inactive)		90.8 µM (inactive)	> 100 µM (inactive)			> 100 µM (inactive)
N#CCCN(c1ccc(/C=C2\N=C(c3ccc(Cl)cc3)OC2=O)cc1)S(=O)(=O)c1ccccc1	> 100 µM (inactive)	> 100 µM (inactive)	> 100 µM (inactive)	> 100 µM (inactive)	> 100 µM (inactive)		> 100 µM (inactive)	> 100 µM (inactive)	> 100 µM (inactive)		> 100 µM (inactive)	> 100 µM (inactive)	> 100 µM (inactive)	> 100 µM (inactive)	> 100 µM (inactive)		> 100 µM (inactive)	> 100 µM (inactive)	96.2 µM (inactive)
CN(CCCN1C(=O)c2cccc3cc([N+](=O)[O-])cc(c23)C1=O)CCN(C)CCCN1C(=O)c2cccc3cc([N+](=O)[O-])cc(c23)C1=O	23.4 µM (inactive)	> 39.3 µM (inactive)	4.94 µM (inactive)	6.73 µM (inactive)	31.9 µM (inactive)	6.34 µM (inactive)	13.6 µM (inactive)	29.7 µM (inactive)	> 39.3 µM (inactive)	33 µM (inactive)	31.8 µM (inactive)		15.2 µM (inactive)	> 39.3 µM (inactive)	29 µM (inactive)	25.9 µM (inactive)	> 39.3 µM (inactive)	17.4 µM (inactive)	> 39.3 µM (inactive)
COc1cc(-c2n[nH]cc2CCCC(=O)Nc2ccccc2[N+](=O)[O-])ccc1O	> 100 µM (inactive)	> 100 µM (inactive)	29.6 µM (inactive)		> 100 µM (inactive)	55.7 µM (inactive)	> 100 µM (inactive)	74.5 µM (inactive)	64.9 µM (inactive)		> 100 µM (inactive)	79.8 µM (inactive)	75.2 µM (inactive)	> 100 µM (inactive)	> 100 µM (inactive)	19.2 µM (inactive)	50.9 µM (inactive)	61.4 µM (inactive)	> 100 µM (inactive)
CC(=O)O[C@H]1CC[C@@]2(C)C(=CC[C@H]3C(CC#N)[C@@](C)(C#N)CCC32)C1 (stereo partly drawn)	> 100 µM (inactive)	> 100 µM (inactive)	> 100 µM (inactive)	> 100 µM (inactive)		> 100 µM (inactive)	> 100 µM (inactive)	> 100 µM (inactive)	> 100 µM (inactive)	> 100 µM (inactive)	> 100 µM (inactive)	> 100 µM (inactive)	74 µM (inactive)	> 100 µM (inactive)	> 100 µM (inactive)	> 100 µM (inactive)	> 100 µM (inactive)	> 100 µM (inactive)	> 100 µM (inactive)
COc1ccc(/C=C/c2cc(OC)c(OC(C)=O)c(OC)c2)cc1	68.1 µM (inactive)	37.3 µM (inactive)		22.1 µM (inactive)		30.8 µM (inactive)	33.7 µM (inactive)	> 10 µM (inactive)	28.1 µM (inactive)		25.9 µM (inactive)	20.3 µM (inactive)	17.5 µM (inactive)	1.94 µM (inactive)	29.1 µM (inactive)	26.3 µM (inactive)	34.6 µM (inactive)		21.6 µM (inactive)
Cc1ccccc1C1CC(c2ccccc2)=NO1 (stereo not drawn)	> 100 µM (inactive)	> 100 µM (inactive)	> 100 µM (inactive)	> 100 µM (inactive)	> 100 µM (inactive)	> 100 µM (inactive)	> 100 µM (inactive)	> 100 µM (inactive)	> 100 µM (inactive)		> 100 µM (inactive)	> 100 µM (inactive)	> 100 µM (inactive)	> 100 µM (inactive)	> 100 µM (inactive)	> 100 µM (inactive)	> 100 µM (inactive)	> 100 µM (inactive)	> 100 µM (inactive)
COc1ccc(NC(=O)CC2S/C(=N\c3ccccc3C)NC2=O)c([N+](=O)[O-])c1 (stereo not drawn)	> 100 µM (inactive)	> 100 µM (inactive)	> 100 µM (inactive)	> 100 µM (inactive)			> 100 µM (inactive)	> 100 µM (inactive)			> 100 µM (inactive)	> 100 µM (inactive)	> 100 µM (inactive)	> 100 µM (inactive)	> 100 µM (inactive)	> 100 µM (inactive)	> 100 µM (inactive)		> 100 µM (inactive)
NC(CCCCNCc1ccccc1O)C(=O)O (stereo not drawn)	> 100 µM (inactive)	> 100 µM (inactive)	> 100 µM (inactive)	> 100 µM (inactive)	> 100 µM (inactive)	> 100 µM (inactive)	> 100 µM (inactive)	> 100 µM (inactive)	> 100 µM (inactive)		> 100 µM (inactive)	> 100 µM (inactive)	> 100 µM (inactive)	> 100 µM (inactive)	> 100 µM (inactive)	> 100 µM (inactive)	> 100 µM (inactive)	> 100 µM (inactive)	> 100 µM (inactive)
CS(=O)(=O)Oc1cccc(/C=N/N=C(\N)NO)c1	26.7 µM (inactive)	27 µM (inactive)	19.1 µM (inactive)	24.8 µM (inactive)	20.9 µM (inactive)	23.9 µM (inactive)	19.3 µM (inactive)	28.6 µM (inactive)	34 µM (inactive)	37.4 µM (inactive)	27.5 µM (inactive)	22.8 µM (inactive)	27.7 µM (inactive)	36 µM (inactive)	24.2 µM (inactive)	23.1 µM (inactive)	27.1 µM (inactive)		23.3 µM (inactive)
c1ccc2c(c1)Cc1c(Cc3csc4ccccc34)ccc3cccc-2c13	> 100 µM (inactive)		45.9 µM (inactive)	> 100 µM (inactive)		> 100 µM (inactive)	> 100 µM (inactive)	> 100 µM (inactive)	> 100 µM (inactive)	> 100 µM (inactive)	> 100 µM (inactive)	> 100 µM (inactive)	> 100 µM (inactive)	> 100 µM (inactive)	> 100 µM (inactive)	> 100 µM (inactive)	> 100 µM (inactive)	> 100 µM (inactive)	
CCOC(=O)C12CCCC1(O)N(NC(=O)OC(C)(C)C)C(C)=C2C(=O)OC (stereo not drawn)	> 100 µM (inactive)	> 100 µM (inactive)	> 100 µM (inactive)	> 100 µM (inactive)	> 100 µM (inactive)	> 100 µM (inactive)	> 100 µM (inactive)	> 100 µM (inactive)	> 100 µM (inactive)		> 100 µM (inactive)	> 100 µM (inactive)	> 100 µM (inactive)	> 100 µM (inactive)	> 100 µM (inactive)	> 100 µM (inactive)	> 100 µM (inactive)		> 100 µM (inactive)
